According to ChEMBL document CHEMBL4190168 (Medchemcomm, 2016):
Activity calls are given as the source filed them. The calls are words filed in the database; no cut-off is given here.

Tests used:
Chorioallantoic membrane = assay: Antiangiogenic activity in chicken fertilized egg chorioallantoic membrane at 30 uM after 48 hrs by microscopic analysis; assay type: functional, tissue-based; conditions: Gallus gallus
EA.hy 926 [1] = assay: Anti-migratory activity against human EAhy926 cells assessed as inhibition of VEGF-induced cell migration towards wound area after 24 hrs by phase contrast microscopic analysis; assay type: functional, cell-based
EA.hy 926 [2] = assay: Antiangiogenic activity in human EAhy926 cells assessed as inhibition of VEGF-induced capillary tube formation after 24 hrs by matrigel based phase contrast microscopic analysis; assay type: functional, cell-based
[3] = Solubility of the compound in water; assay type: physicochemical

Row | SMILES | solubility [3] [µg/mL] | further results
1 | COc1ccc(-c2nc(CNCCCCCNCc3cc4c5ccccc5n(C)c4c(-c4ccc(OC)cc4)n3)cc3c4ccccc4n(C)c23)cc1 |  | Activity (Chorioallantoic membrane): Active; inhibition (EA.hy 926 [1]): Dose-dependent effect; inhibition (EA.hy 926 [2]): Dose-dependent effect
2 | Cl.Clc1ccc(-c2nc(CNCCCCCCNCc3cc4c5ccccc5n(Cc5ccccc5)c4c(-c4ccc(Cl)cc4)n3)cc3c4ccccc4n(Cc4ccccc4)c23)cc1 | > 10000 | 
3 | COc1cc(-c2nc(CNCCCCCCNCc3cc4c5ccccc5n(CCCc5ccccc5)c4c(-c4cc(OC)c(OC)c(OC)c4)n3)cc3c4ccccc4n(CCCc4ccccc4)c23)cc(OC)c1OC.Cl | > 10000 | 
4 | CC(C)c1nc(CNCCCCCCNCc2cc3c4ccccc4n(Cc4ccccc4)c3c(C(C)C)n2)cc2c3ccccc3n(Cc3ccccc3)c12.Cl | > 10000 | 
5 | CCCCn1c2ccccc2c2cc(CNCCCCNCc3cc4c5ccccc5n(CCCC)c4c(-c4ccc(Cl)cc4)n3)nc(-c3ccc(Cl)cc3)c21.Cl | > 10000 | 
6 | CCCCn1c2ccccc2c2cc(CNCCCNCc3cc4c5ccccc5n(CCCC)c4c(-c4ccc(Cl)cc4)n3)nc(-c3ccc(Cl)cc3)c21.Cl | > 10000 | 
